In patent US20060241177A1, “Novel compounds, pharmaceutical compositions containing same, and methods of use for same” (priority 2002, published 2006):
In brackets after ≈: the same amount, converted by molar mass. Like-named read-outs stand apart in the source and are kept apart here.

How the values were obtained:
Format in all cases: cell-based
[1] = tested on: MCF-7 human breast cancer cells; assay: XTT cytotoxicity assay; conditions: MCF7, MCF-7 cells, 72 hours
Description: The XTT assay is a non-radioactive alternative for the [^51Cr] release cytotoxicity assay. XTT is a tetrazolium salt that is reduced to a formazan dye only by metabolically active, viable cells. The reduction of XTT is measured spectrophotometrically as OD490-OD650.
To measure the cytotoxicity of specific compounds against cancer cells, 9×10^3 MCF-7 human breast cancer cells, obtained from the American Type Culture Collection are plated per well in 96 well plates in DMEM medium with 10% fetal bovine serum, msulin, penicillin, and streptomycin. Following overnight culture at 37° C. and 5% CO2, the compounds to be tested, dissolved in DMSO, are added to the wells in 1 μl volume at the following concentrations: 80, 40, 20, 10, 5, 2.5, 1.25, and 0.625 μg/ml in triplicate. Additional concentrations are tested if required. 1 μl of DMSO is added to triplicate wells are the vehicle control. C75 is run at 40, 20, […], and 5 μg/ml in triplicate as positive controls.
After 72 hours of incubation, cells are incubated for 4 hours with the XTT reagent as per manufacturer's instructions (Cell Proliferation Kit II (XTT) Roche). Plates are read at OD490 and OD650 on a Molecular Devices SpectraMax Plus Spectrophotometer. Three wells containing the All reagent without cells serve as the plate blank. XTT data are reported as OD490-OD650. Averages and standard error of the mean are computed using SOFTmax Pro software ([…]).
The IC50 for the compounds is defined as the concentration of drug leading to a 50% reduction in OD490-OD650 compared to controls. The OD490-OD650 are computed by the SOFTmax PRO software Molecular Devices) for each compound concentration. IC50 is calculated by linear regression, plotting the FAS activity as percent of control versus drug concentrations. Linear regression, best-fit line, r^2, and 95% confidence intervals are determined using Prism Version 3.0 (Graph Pad Software).

[2] = tested on: Enterococcus faecalis (ATCC #29212); assay: Broth microdilution MIC; conditions: 24 hours; for MIC: Enterococcus faecalis, ATCC29212
Description: (§1) A broth microdilution assay is used to assess the antimicrobial activity of the compounds. Compounds are tested at twofold serial dilutions, and the concentration that inhibits visible growth (OD600 at 10% of control) is defined as the MIC. Microorganisms tested include Staphylococcus aureus (ATCC #29213), Enterococcus faecalis (ATCC #29212), Pseudomonas aeruginosa (ATCC #27853), and Escherichia coli (ATCC #25922). The assay is performed in two growth media, Mueller Hinton Broth and Trypticase Soy Broth.
(§2) A blood (Tsoy/5% sheep blood) agar plate is inoculated from frozen stocks maintained in T soy broth containing 10% glycerol and incubated overnight at 37° C. Colonies are suspended in sterile broth so that the turbidity matches the turbidity of a 0.5 McFarland standard. The inoculum is diluted 1:10 in sterile broth (Mueller Hinton or Trypticase soy) and 195 ul is dispensed per well of a 96-well plate. The compounds to be tested, dissolved in DMSO, are added to the wells in 5 ul volume at the following concentrations: 25, 12.5, 6.25, 3.125, 1.56 and 0.78 ug/ml in duplicate. Additional concentrations are tested if required. 5 ul of DMSO added to duplicate wells are the vehicle control. Serial dilutions of positive control compounds, vancomycin (E. faecalis and S. aureus) and tobramycin (E. coli and P. aeruginosa), are included in each rum
(§3) After 24 hours of incubation at 37° C., plates are read at OD600 on a Molecular Devices SpectraMax Plus Spectrophotometer. Average OD600 values are computed using SOFTmax Pro Software (Molecular Devices) and MIC values are determined by linear regression analysis using Prism version 3.02 (Graph Pad Software, San Diego). The MIC is defined as the concentration of compound required to produce an OD600 reading equivalent to 10% of the vehicle control reading.

[3] = tested on: Escherichia coli (ATCC #25922); assay: Broth microdilution MIC; conditions: 24 hours; for MIC: Escherichia coli, ATCC25922
Description: as §1, §2, §3

[4] = tested on: Pseudomonas aeruginosa (ATCC #27853); assay: Broth microdilution MIC; conditions: 24 hours; for MIC: Pseudomonas aeruginosa, ATCC27853
Description: as §1, §2, §3

[5] = tested on: Staphylococcus aureus (ATCC #29213); assay: Broth microdilution MIC; conditions: 24 hours; for MIC: Staphylococcus aureus, ATCC29213
Description: as §1, §2, §3

[6] = Mueller Hinton Broth, read-out: EF/MH (MIC)
[7] = Trypticase Soy Broth, read-out: EF/Tsoy (MIC)
[8] = Mueller Hinton Broth, read-out: SA/MH (MIC)
[9] = Trypticase Soy Broth, read-out: SA/Tsoy (MIC)
[10] = Trypticase Soy Broth, read-out: Ecoli/Tsoy (MIC)
[11] = Mueller Hinton Broth, read-out: PSAE/MH (MIC)
[12] = Trypticase Soy Broth, read-out: PSAE/Tsoy (MIC)

Compound | IC50 [1] [µg/mL] | MIC [2, 6] [µg/mL] | MIC [2, 7] [µg/mL] | MIC ([3]; Mueller Hinton Broth, read-out: Ecoli/MH (MIC)) [µg/mL] | Ecoli/Tsoy (MIC) ([3]; Trypticase Soy Broth) | PSAE/MH (MIC) ([4]; Mueller Hinton Broth) | PSAE/Tsoy (MIC) ([4]; Trypticase Soy Broth) | MIC [5, 8] [µg/mL] | SA/Tsoy (MIC) ([5]; Trypticase Soy Broth) | Ecoli/MH (MIC) ([3]; Mueller Hinton Broth) | MIC [5, 9] [µg/mL] | MIC [3, 10] [µg/mL] | EF/MH (MIC) ([2]; Mueller Hinton Broth) | MIC [4, 11] [µg/mL] | MIC [4, 12] [µg/mL] | EF/Tsoy (MIC) ([2]; Trypticase Soy Broth)
C=CCNC(=O)[C@H]1[C@H](CCCCCCCC)OC(=O)[C@H]1C (racemic) | 59.4 ± 6.4 (≈ 201 µM) | 91 (≈ 308 µM) | 114 (≈ 386 µM) | 108 (≈ 366 µM) | Neg | Neg | Neg | 107 (≈ 362 µM) | Neg | – | – | – | – | – | – | –
CCCCCCCCC1OC(=O)[C@@H](C)[C@H]1C(=O)O (some centres unmarked) | > 80 | – | – | – | – | – | – | – | – | – | – | – | – | – | – | –
CCCCCCCCC1OC(=O)[C@H](C)[C@H]1C(=O)O (some centres unmarked) | > 80 | 109 (≈ 425 µM) | 94 (≈ 367 µM) | – | Neg | Neg | Neg | 43 (≈ 168 µM) | – | Neg | 60 (≈ 234 µM) | – | – | – | – | –
C=C1C(=O)O[C@@H](CCCCCCCC)[C@@H]1C(=O)NCC(=O)O (racemic) | > 80 | 219 (≈ 703 µM) | 215 (≈ 690 µM) | – | – | Neg | Neg | 72 (≈ 231 µM) | – | Neg | 52 (≈ 167 µM) | 235 (≈ 755 µM) | – | – | – | –
C=C1C(=O)O[C@@H](CCCCCCCC)[C@@H]1C(=O)NCCO (racemic) | 4.1 ± 2.2 (≈ 13.8 µM) | – | 77 (≈ 259 µM) | – | Neg | Neg | Neg | 44 (≈ 148 µM) | – | Neg | 48 (≈ 161 µM) | – | Neg | – | – | –
C=CCNC(=O)[C@@H]1C(=C)C(=O)O[C@H]1CCCCCC (racemic) | 1.6 ± 0.1 (≈ 6.03 µM) | 103 (≈ 388 µM) | 38 (≈ 143 µM) | – | Neg | Neg | Neg | 49 (≈ 185 µM) | – | Neg | 47 (≈ 177 µM) | – | – | – | – | –
C=C1C(=O)O[C@@H](CCCCCCCC)[C@@H]1C(=O)NCC(=O)OC (racemic) | 2 ± 0.5 (≈ 6.15 µM) | 80 (≈ 246 µM) | 245 (≈ 753 µM) | – | – | Neg | Neg | 4.3 (≈ 13.2 µM) | – | Neg | 26 (≈ 79.9 µM) | 275 (≈ 845 µM) | – | – | – | –
C=CCNC(=O)C1=C(C)C(=O)O[C@H]1CCCCCCCC | 27.8 ± 3.8 (≈ 94.7 µM) | 115 (≈ 392 µM) | 203 (≈ 692 µM) | – | – | – | – | 79 (≈ 269 µM) | – | Neg | 87 (≈ 297 µM) | 199 (≈ 678 µM) | – | 280 (≈ 954 µM) | 137 (≈ 467 µM) | –
C=CCNC(=O)[C@H]1[C@H](CCCCCCCC)OC(=O)[C@@H]1C (racemic) | 20.8 ± 7.1 (≈ 70.4 µM) | 84 (≈ 284 µM) | – | – | – | – | – | 80 (≈ 271 µM) | – | Neg | 193 (≈ 653 µM) | 155 (≈ 525 µM) | – | 218 (≈ 738 µM) | 160 (≈ 542 µM) | Neg
C=CCNC(=O)[C@@H]1C(=C)C(=O)O[C@H]1CCCCCCCC (racemic) | 0.81 ± 0.01 (≈ 2.76 µM) | 36 (≈ 123 µM) | 25 (≈ 85.2 µM) | – | – | Neg | Neg | 9.1 ± 1.9 (≈ 31 µM) | – | – | 12 ± 0.5 (≈ 40.9 µM) | – | – | – | – | –
C=CCNC(=O)[C@@H]1C(=C)C(=O)O[C@H]1CCCC (racemic) | 2.4 ± 0.2 (≈ 10.1 µM) | 190 (≈ 801 µM) | 67 (≈ 282 µM) | – | Neg | Neg | Neg | 65 (≈ 274 µM) | – | Neg | 96 (≈ 405 µM) | – | – | – | – | –
